Assay results taken from patent EP4741374A1, “TREPROSTINIL DERIVATIVE, AND PREPARATION METHOD THEREFOR AND USE THEREOF” (CF PharmTech HongKong Limited, priority 2023, dated 2025).

Assays:
[1] = target: T1, IP receptor (Homo sapiens, UniProt P43119); experiment: In-vitro agonist activity on IP receptor, FLIPR calcium test in IP/HEK293 cells; assay type: cell-based; details: 10 concentrations, 10-fold dilutions
T1 construct: host or cells: HEK293 (IP/HEK293 cell line)
Procedure: The specific method is as follows: The IP/HEK293 cell line was provided by WuXi AppTec (Shanghai) Co., Ltd. Well-grown IP/HEK293 cells were taken out from the incubator, the culture solution was aspirated, the cells were washed with D-PBS and digested with trypsin EDTA, and then added with a cell culture solution, and the cells were fully suspended by repeated pipetting. The cells were centrifuged at room temperature, the supernatant was aspirated, a culture medium was added, and the cells were resuspended by repeated pipetting with a sterile pipette. After counting living cells with Vi-CELL™, 20 µL (20,000 cells/well) of cell suspension was added to a 384-well cell culture plate and incubated in a 5% CO2 incubator at 37°C overnight. 1 mL of FLIPR test buffer was added with 77 mg of probenecid to prepare 250 mM probenecid solution. After thawing a bottle of 2XFluo-4 DirectTM (F10471), the bottle was added with 10 mL of FLIPR test buffer containing 500 uM AEBSF, and each 10 mL of Fluo-Direct was added with 0.2 mL of probenecid, with a final concentration of 2.5 mM. The mixture was vortexed and then allowed to stand in the dark for more than 5 minutes. Each compound was placed in a water bath at 25°C for 30 minutes. Then, these compounds were sequentially diluted 10-fold with Bravo, with a total of 10 concentrations, for testing. 750 nL of each compound was transferred to a 384-well compound plate with ECHO. Then, the compound plate was added with 30 µL of detection buffer. The 384-well cell culture plate was taken out from the incubator, the culture medium was discarded, and 20 µL of test buffer and 20 µL of 2X Fluo-4 DirectTM No-Wash loading buffer were added with a pipette. The cell culture plate was incubated in a 5% CO2 incubator at 37°C for 50 minutes and incubated at room temperature for 10 minutes. The cell culture plate, the compound plate and a tip box were placed into FLIPR, FLIPRTETRA test program was operated, 10 µL of reference compound and 10 µL of test compound were aspirated from the compound plate to the cell culture plate, fluorescence signals were read, and then data were processed. The data were analyzed by using Prism.

[2] = target: T2, EP2 receptor (Homo sapiens, UniProt P43116); experiment: Competitive binding to EP2 receptor against radiolabeled ligand 3H-PGE2; details: 8 concentrations from 10 µM, 10-fold dilutions
T2 construct: purchased Merck HTS185M
T2 sequence (P43116 whole entry): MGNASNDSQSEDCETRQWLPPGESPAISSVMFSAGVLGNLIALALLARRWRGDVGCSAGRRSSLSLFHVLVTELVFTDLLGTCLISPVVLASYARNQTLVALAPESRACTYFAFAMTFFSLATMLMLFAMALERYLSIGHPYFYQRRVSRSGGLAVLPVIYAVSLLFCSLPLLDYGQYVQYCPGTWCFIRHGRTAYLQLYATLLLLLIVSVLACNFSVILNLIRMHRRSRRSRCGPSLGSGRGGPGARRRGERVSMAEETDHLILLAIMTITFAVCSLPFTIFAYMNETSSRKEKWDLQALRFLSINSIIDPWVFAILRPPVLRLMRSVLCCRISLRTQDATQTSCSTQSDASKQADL
Procedure: This experiment was carried out in 96-well plates to evaluate the binding affinity of the compounds of the present invention (Ia-1, Ia-2 and Ia-3) to the prostaglandin EP2 receptor by testing their ability of competitive binding to the EP2 receptor with the radiolabeled ligand ^3H-PGE2. Treprostinil was used as control. MicroBeta2 was used to detect the number of ^3H captured, and Prism software was used to analyze data. The EP2 film (Merck, Cat# HT[…], batch number 2121326) was diluted with a buffer (50 mM Hepes, PH=7.4, 5 mM MgCl2, 1 mM CaCl2, 0.5% BSA) to a final concentration of 75 μg/mL. ^3H-PGE2 was diluted to 15 nM. Test compound and control compound solutions with an initial concentration of 10 μM were prepared, and subjected to 10-fold continuous gradient dilution, with a total of 8 concentrations for testing. 5%DMSO was used as a solvent control group. 1 μL of each compound solution was added into a corresponding position in the 96-well test plate, and each well was added with 50 μL of the EP2 film (about 3.75 μg/well), and added with 50 μ L of ^3H-PGE2. Then, the well plate was sealed, and incubated with shaking at 300 rpm at room temperature for 2 hours. After finishing the incubation, GF/C plates were filtered with Perkin Elmer Filtermate Harvester, and then each plate was washed with cold eluent for 4 times, and dried at 50°C for 1 hour. After drying, bottoms of wells of the filter plate were sealed with a PerkinElmer Unifilter-96 backing tape. 50 μL of Perkin Elmer Microscint O was added. The top of the filter plate was sealed with Perkin Elmer TopSeal-A sealing film. The number of ^3H captured was detected by MicroBeta2.

[3] = Stability of treprostinil derivative in ethanol/water solutions of different pH (light irradiation, 40°C, 60°C); assay type: physicochemical
Procedure: 1 mol/L hydrochloric acid and/or sodium hydroxide aqueous solution and distilled water were used to prepare 100 mL solutions with different pH values (3.0, 4.0, 5.0, 6.0, 7.0, 8.0, 9.0 and 10.0) for later use. 640 mg of compound Ia-2 was taken and added with 640 mL of 90% ethanol as a diluent to completely dissolve the compound, and then prepared into 1 mg/mL sample solution 1 for later use. • (1) […] of 90% ethanol, the sample solution 1 and 80 mL of each aqueous solution with different pH value (3.0, 5.0, 7.0 or 9.0) were taken and mixed evenly (ethanol: water =1.5: 1), and filled 2 mL per vial to obtain total 90 vials of samples, and the samples were divided into three groups equally for stability examination under the condition of light-irradiation, high-temperature of 40°C or high-temperature of 60°C. The samples of the two high-temperature stability examination groups were packaged in aluminum foil bags, 10 vials per bag; and the samples of the light-irradiation stability examination group were packaged in transparent bags, 10 vials per bag. • (2) 80 mL of 90% ethanol, the sample solution 1 and 80 mL of each aqueous solution with different pH value (4.0, 6.0, 8.0 or 10.0) were taken and mixed evenly (ethanol: water =2: 1), and then filled, grouped and packaged as above.
After the above samples were placed under conditions as described in Table-1, 15 vials of samples were taken from each group at each detection time point for detection for each pH value solution, comprising: the content of compound, the content of related substances (impurities) and liquid properties (whether there was turbidity, stratification or color change). The content of compound and the content of related substances were calculated by calculating the percentage of area occupied by the main ingredient through an area normalization method. Table-1 Placement conditions for stability examination of compound Ia-2

T1 sequence (P43119 whole entry): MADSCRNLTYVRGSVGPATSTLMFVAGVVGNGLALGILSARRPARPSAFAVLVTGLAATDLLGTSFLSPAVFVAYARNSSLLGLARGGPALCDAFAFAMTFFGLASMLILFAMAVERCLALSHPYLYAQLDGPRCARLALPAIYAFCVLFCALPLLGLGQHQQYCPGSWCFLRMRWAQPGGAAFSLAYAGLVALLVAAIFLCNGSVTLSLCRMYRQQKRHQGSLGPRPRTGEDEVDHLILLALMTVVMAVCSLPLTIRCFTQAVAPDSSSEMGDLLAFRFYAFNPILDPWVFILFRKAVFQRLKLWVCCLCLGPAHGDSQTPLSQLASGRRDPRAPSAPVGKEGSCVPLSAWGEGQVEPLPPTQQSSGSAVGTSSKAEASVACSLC

agonist activity on IP receptor [1]: no agonist activity
binding to the EP2 receptor (competition with 3H-PGE2) [2]: no detectable binding
content of compound ([3]; each group (pH 3-10), placement at 40°C for 30 days): higher than 80%
content of compound ([3]; ethanol: water 1.5:1 or 2.0:1, different pH values, after placement for 10 days): higher than 95%
ethyl ester impurities ([3]; extreme conditions: pH=3, 60°C for 30 days, pH=10, 40°C for 30 days or 60°C more than 10 days): 8.0~9.0%
ethyl ester impurities ([3]; high-temperature placement, other conditions): less than 4.0%
ethyl ester impurities ([3]; light irradiation, each group, after 10 days): less than 1.80%
content of compound ([3]; solution with pH=5.0~9.0, placement at 60°C for 30 days): higher than 90%
Compound: CCCCC[C@H](O)CC[C@@H]1[C@H]2Cc3cccc(OCC(=O)OCCCCCCCCOCCCCc4ccccc4)c3C[C@H]2C[C@H]1O [Compound Ia-2]
